The values below are quoted from earlier work in patent US20060089319A1, “Method for treatment and prevention of bacterial vaginosis” (priority 2004, published 2006).

For this data set, the system named is bacterial vaginosis.

For the molecule `Cc1ncc([N+](=O)[O-])n1CCO` [metronidazole], the “hospital admissions for preterm labor, preterm births, PROM, and low-birth-weight infants” value (oral, high-risk women with previous preterm delivery, double-blind study by Morales et al.) is given as “fewer”. Also, the “long-term suppression of bacterial vaginosis flora (duration)” value (oral, pregnant women, two separate studies) is given as 2-3 months. Further, the “treatment of bacterial vaginosis in pregnant women, thereby preventing preterm delivery” value (pregnant women, numerous studies) is listed as “effective treatment”.
